Measurements taken from US20230123334A1, “AMINO LIPID COMPOUND, PREPARATION METHOD THEREFOR, AND APPLICATION THEREOF” (SHENZHEN SHENXIN BIOTECHNOLOGY CO., LTD., priority 2020, published 2023).

How the values were obtained:
Format in all cases: cell-based
[1] = test system: embryonic stem cells (hESC2); test: Screening as mRNA vectors in embryonic stem cells; conditions: 50 ng EGFP mRNA per well
In short: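 EGFP mRNA (50 ng per well) transfected into hESC2 cells grown in mTeSR1; Lipofectamine Stem served as positive control. Read-out: GFP-fluorescent cells as percentage of total cells.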

[2] = test system: cardiomyocytes; test: Screening as mRNA vectors in cardiomyocytes; conditions: 50 ng EGFP mRNA per well
In short: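 Cardiomyocytes differentiated from hESC, in DMEM with 10% FBS, were transfected with 50 ng EGFP mRNA per well. The read-out was GFP-positive cells as a percentage of Hoechst-stained nuclei, with Lipofectamine Stem as positive control.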

[3] = test system: Hela cells; test: Transfection of Hela cell line, mRNA vectors; conditions: 50 ng EGFP mRNA per well
In short: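 Transfection efficiency was scored as GFP-fluorescent cells over Hoechst-stained total nuclei, with Lipofectamine2000 as reference reagent. Each well of HeLa cells, grown in DMEM plus 10% FBS, received 50 ng EGFP mRNA.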

[4] = test system: embryonic stem cells (hESC2); test: Screening as DNA vectors in embryonic stem cells, flow cytometry; conditions: 75 ng plasmid DNA, 48 hours after transfection, flow cytometer
In short: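 hESC2 cells in mTeSR1 on matrigel transfected with 75 ng pSin-EGFP-IRES-Puro complexed with amino lipid/DOPE liposomes formed in sodium acetate pH 5.6; 37 °C, 5% CO2. After 48 h, GFP-positive cells counted by flow cytometry (≥2000 cells), efficiency also expressed relative to Lipofectamine Stem.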

[5] = test system: cardiomyocytes; test: Screening as DNA vectors in cardiomyocytes; design: concentration or dose not given beside the values; conditions: method as Example 4
In short: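 hESC-derived cardiomyocytes in DMEM with 10% FBS were transfected with a GFP DNA vector; Lipofectamine Stem served as positive control. Read-out: percentage of GFP-positive cells relative to total cells counted by Hoechst nuclear stain.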

[6] = test system: Hela cells; test: Transfection of Hela cell line, DNA vectors; conditions: 75 ng plasmid DNA, GFP cells / total cells
In short: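 Amino lipid/DOPE liposomes in sodium acetate pH 5.6 were complexed with 75 ng psin-EGFP-IRES-Puro plasmid for 30 min at room temperature, then mixed with 3-5×10^4 Hela cells in DMEM/10% FBS at 37° C. Hoechst stain after 20-24 h, imaging after a further 20-24 h. Efficiency = GFP-positive cells / total nuclei.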

[7] = test system: MCF7 cells; test: Transfection of MCF7 cell line, DNA vectors; design: concentration or dose not given beside the values; conditions: plasmid DNA, GFP cells / total cells
In short: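 Read-out: GFP-positive cells as % of all Hoechst-stained nuclei after 96-well transfection of MCF7 cells grown in serum-supplemented DMEM. Positive control was Lipofectamine2000, used per manufacturer's protocol.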

[8] = test system: MCF7 cells; test: Transfection of MCF7 cell line, mRNA vectors; conditions: 50 ng EGFP mRNA per well
In short: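 Efficiency was scored as the fraction of GFP-fluorescent cells over all Hoechst-counted cells after delivery of 50 ng EGFP mRNA per well. Cells were MCF7 grown in serum-supplemented DMEM, and Lipofectamine2000 served as reference.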

| Structure (SMILES) | Absolute mRNA transfection efficiency in embryonic stem cells [1] | Absolute mRNA transfection efficiency in cardiomyocytes [2] | Absolute mRNA transfection efficiency in Hela cells [3] | Absolute DNA transfection efficiency in embryonic stem cells [4] | Absolute DNA transfection efficiency in cardiomyocytes [5] | Absolute DNA transfection efficiency in Hela cells [6] | Absolute DNA transfection efficiency in MCF7 cells [7] | Absolute mRNA transfection efficiency in MCF7 cells [8] |
| --- | --- | --- | --- | --- | --- | --- | --- | --- |
| CCCCCCCCCCCCNc1nc(NCCN2CCCC2)nc(SCCCCCCCCC)n1 [Compound S9N12D3] | 4.6% | 29.2% | 23.7% | 2.3% | 1.1% | 23.7% | 27.5% | 15.9% |
| CCCCCCCCCCCCNc1nc(NCCN2CCN(C)CC2)nc(SCCCCCCCCC)n1 [Compound S9N12D5] | 10.5% | 25.5% | 24.1% | 2.5% | 4.0% | 24.1% | 13.7% | 16.6% |
| CCCCCCCCCCCCNc1nc(NCCCN(C)C)nc(SCCCCCCCCC)n1 [Compound S9N12D6] | 6.1% | 5.3% | 35.5% | 1.9% | 1.7% | 35.5% | 21.8% | 22.4% |
| CCCCCCCCCCCCNc1nc(NCCCN2CCOCC2)nc(SCCCCCCCCC)n1 [Compound S9N12D8] | 11.1% | 2.1% | 6.8% | 1.1% | 1.5% | 6.8% | 6.2% | 0.7% |
| CCCCCCCCCCCCNc1nc(NCCCN2CCN(C)CC2)nc(SCCCCCCCCC)n1 [Compound S9N12D9] | 7.6% | 32.0% | 14.4% | 2.7% | 0.0% | 14.4% | 20.0% | 16.4% |
| CCCCCCCCCCCCNc1nc(NCC2CCN(C)CC2)nc(SCCCCCCCCC)n1 [Compound S9N12D10] | 14.0% | 40.6% | 12.9% | 5.3% | 3.6% | 12.9% | 31.7% | 11.2% |
